Laboratory results reported in ChEMBL document CHEMBL1127680, “Specific inhibitors of ileal bile acid transport” (J Med Chem, 1994).

What was measured:
Assay type in all cases: functional
[1] = species on record: Oryctolagus cuniculus; test: The compound was evaluated for the inhibition of Na+-dependent [3H]taurocholate uptake into ileal brush border membrane vesicles in rabbit, by 75%
[2] = species on record: Oryctolagus cuniculus; test: The compound was evaluated for the inhibition of Na+-dependent [3H]taurocholate uptake into ileal brush border membrane vesicles in rabbit, by 25%
[3] = species on record: Oryctolagus cuniculus; test: The compound was evaluated for the inhibition of Na+-dependent [3H]taurocholate uptake into ileal brush border membrane vesicles in rabbit; by 75%
[4] = species on record: Oryctolagus cuniculus; test: The compound was evaluated for the inhibition of Na+ dependent [3H]taurocholate uptake into ileal brush border membrane vesicles in rabbit; by 25%
[5] = species on record: Oryctolagus cuniculus; test: The compound was evaluated for the inhibition of Na+-dependent [3H]taurocholate uptake into ileal brush border membrane vesicles in rabbit; by 50%
[6] = tested on: Rattus norvegicus; test: The compound was evaluated for the percentage inhibition of ileal taurocholate transport, in anesthetized wistar rats at 30 min
[7] = tested on: Rattus norvegicus; test: The compound was evaluated for the percentage inhibition of ileal taurocholate transport, in anesthetized wistar rats at 60 min
[8] = tested on: Rattus norvegicus; test: The compound was evaluated for the percentage inhibition of ileal taurocholate transport; in anesthetized wistar rats at 12 min
[9] = species on record: Oryctolagus cuniculus; test: The compound was evaluated for the inhibition of Na+-dependent [3H]taurocholate uptake into ileal brush border membrane vesicles in rabbit, by 50%
[10] = tested on: Rattus norvegicus; test: The compound was evaluated for the percentage inhibition of ileal taurocholate transport, in anesthetized wistar rats at 12 min

IC50 [9] | SMILES | IC75 [1] | IC25 [2] | IC75 [3] | IC25 [4] | IC50 [5] | Inhibition [6] | Inhibition [7] | Inhibition [8] | Inhibition [10]
> 250 µM | CC(CCC(=O)O)C1CC[C@H]2[C@@H]3[C@H](O)C[C@@H]4C[C@@H](OCCNC(=O)CCC(C)C5CC[C@H]6[C@@H]7CC[C@@H]8C[C@H](O)CC[C@]8(C)[C@H]7CC[C@]56C)CC[C@]4(C)[C@H]3C[C@H](O)[C@]12C (stereo partly specified) | > 250 µM | 154 µM | – | – | – | – | – | – | –
> 250 µM | CC(CCC(=O)O)C1CC[C@H]2[C@@H]3[C@H](O)C[C@@H]4C[C@@H](OCCNC(=O)CCC(C)C5CC[C@H]6[C@@H]7[C@H](O)C[C@@H]8C[C@H](OC(c9ccccc9)c9ccccc9)CC[C@]8(C)[C@H]7C[C@H](O)[C@]56C)CC[C@]4(C)[C@H]3C[C@H](O)[C@]12C (stereo partly specified) | > 250 µM | 125 µM | – | – | – | – | – | – | –
48 µM | CC(CCC(=O)N[C@H]1CC[C@@]2(C)[C@@H](C1)C[C@@H](O)[C@@H]1[C@@H]2C[C@H](O)[C@]2(C)C(C(C)CCC(=O)O)CC[C@@H]12)C1CC[C@H]2[C@@H]3[C@H](O)C[C@@H]4C[C@H](O)CC[C@]4(C)[C@H]3C[C@H](O)[C@]12C (stereo partly specified) | 84 µM | 24 µM | – | – | – | 59% | 54% | – | 51%

The next lines start with the molecule.

SMILES | IC50 [9] | IC75 [1] | IC25 [2] | IC75 [3] | IC25 [4] | IC50 [5] | Inhibition [6] | Inhibition [7] | Inhibition [8] | Inhibition [10]
C[C@H](CCC(=O)O)[C@H]1CC[C@H]2[C@@H]3[C@H](O)C[C@@H]4C[C@H](O)CC[C@]4(C)[C@H]3C[C@H](O)[C@]12C | – | 152 µM | 40 µM | – | – | – | – | – | – | –
CC(CCC(=O)NCCO[C@H]1CC[C@@]2(C)[C@@H](C1)C[C@@H](O)[C@@H]1[C@@H]2C[C@H](O)[C@]2(C)C(C(C)CCC(=O)O)CC[C@@H]12)C1CC[C@H]2[C@@H]3[C@H](O)C[C@@H]4C[C@H](O)CC[C@]4(C)[C@H]3C[C@H](O)[C@]12C (stereo partly specified) | – | – | – | 57 µM | 20 µM | 36 µM | 23% | 18% | 23% | –
C[C@H](CCC(=O)NCCS(=O)(=O)O)[C@H]1CC[C@H]2[C@@H]3[C@H](O)C[C@@H]4C[C@H](O)CC[C@]4(C)[C@H]3CC[C@]12C | – | 61 µM | 13 µM | – | – | – | – | – | – | –
CC(CCC(=O)O)C1CC[C@H]2[C@@H]3[C@H](O)C[C@@H]4C[C@@H](OCCNC(=O)CCC(=O)NCCCNC(=O)CCC(C)C5CC[C@H]6[C@@H]7[C@H](O)C[C@@H]8C[C@H](OC(c9ccccc9)c9ccccc9)CC[C@]8(C)[C@H]7C[C@H](O)[C@]56C)CC[C@]4(C)[C@H]3C[C@H](O)[C@]12C (stereo partly specified) | 19 µM | 30 µM | 9 µM | – | – | – | 16% | 10% | – | 26%
CC(CCC(=O)O)C1CC[C@H]2[C@@H]3[C@H](O)C[C@@H]4C[C@@H](NC(=O)CCC(C)C5CC[C@H]6[C@@H]7CC[C@@H]8C[C@H](O)CC[C@]8(C)[C@H]7CC[C@]56C)CC[C@]4(C)[C@H]3C[C@H](O)[C@]12C (stereo partly specified) | > 250 µM | > 250 µM | 176 µM | – | – | – | – | – | – | –
